Data taken from US20060058394A1, “Medicine of post-traumatic stress disorder” (KYOTO UNIVERSITY, priority 2001, published 2006).

What was measured:
[1] = tested on: EP1 receptor-deficient mice; assay: Aggressive behavior after administering haloperidol; assay type: in vivo; details: EP1 receptor-deficient mice given haloperidol
Description: After two male mice (wild mice (WT) or EP1 receptor-deficient mice) were put in 3 L of glass container and stimulated by the electroshock (1 H, 200 m seconds, 0.3 mA for 3 minutes), these aggressive behaviors were recorded to the video. The time up to the first aggressive behavior (latency; second) and the attack frequency, and total attack time was compared.
(§1) The action admitted when wild mice (WT) or EP1 receptor-deficient mice cohabit with young male mice (5 weeks of ages) was observed.
As a result of experiment similar to experiment example 6 by administering haloperidol to EP1 receptor-deficient mice, it was confirmed that the time up to the first attack elongates, the attack frequency decreases, and the total of attack time shortens.

[2] = tested on: EP1 receptor-deficient mice; assay: Spontaneous locomotor activity after administering haloperidol; assay type: in vivo; details: EP1 receptor-deficient mice given haloperidol
Description: Furthermore, it was also confirmed that the spontaneous locomotor activity decreased when haloperidol was administered to EP1 receptor-deficient mice.

[3] = tested on: ACTH in plasma; assay: ACTH production by LPS induction; assay type: in vivo, C57BL/6 strain mice; details: wild type mice; LPS 0.1 mg/kg i.p.; blood 60 minutes after LPS; EP1 antagonist given 1 hour before LPS; FIG. 2
Description: 0.1 mg/kg of LPS (lipopolysaccharide) as an infectious stress was intraperitoneally administered to C57BL/6 strain mice. The blood be gathered at 60 minutes later after administering LPS, the induced stress reaction, that is, activation of hypothalamus-pituitary-adrenal system were measured as a marker on ACTH in plasma. ACTH was measured with ACTH IRMA kit (Mitsubishi Yuka Medical Co., Tokyo, Japan). (4-[2-(N-isobutyl-2-furanylsulfonylamino)-5-trifluoromethylphenoxymethyl]cinna mic acid (the compound which had been described to example 18(94) in WO98/27053, was used.), which is EP1 antagonist, was administered 1 hour ago before administering LPS.

[4] = tested on: C57BL/6 mice; assay: Decrease of spontaneous locomotor activity by LPS induction; assay type: in vivo; details: wild mice; LPS 0.1 mg/kg i.p.; 0.1% (W/W) EP1 antagonist mixed with food; 12 hours, 8 p.m. to 8 a.m.; FIG. 4
Description: 0.1 mg/kg of LPS is intraperitoneally administered to C57BL/6 mice, they are put in acrylic cage (30×45×35 cm (height), and the momentum for 12 hours from the 8 p.m. to 8 a.m. of next morning was measured with mouse action meter, Infrared photo beam counter (Neuroscience Co., Ltd., Tokyo, Japan). 0.1% (W/W) of EP1 antagonist (the same as experiment example 1 was used) mixed with food was given. Similarly, the difference of the momentum by administering LPS were compared by using wild mice (WT) and EP1 receptor-deficient mice.

[5] = tested on: WT mice; assay: Action of jumping off platform; assay type: in vivo; details: 10 mg/kg i.p., about 20 cm high platform, 7 minutes, FIG. 5
Description: Wild mice, EP1 or EP3 receptor-deficient mice, or WT mice to which 10 mg/kg of EP1 antagonist (the same as experiment example 1 was used.) was intraperitoneally administered put on about 20 cm high platform (beaker), and the presence of the action of jumping off was observed.

[6] = tested on: wild mice; assay: Social behaviors on cohabiting with young male mice (smelling action); assay type: in vivo; details: wild mice cohabiting with young male mice (5 weeks of age)
From the text: as §1

O=C(CCCN1CCC(O)(c2ccc(Cl)cc2)CC1)c1ccc(F)cc1 [haloperidol]
attack frequency [1]: decreases
time up to the first attack [1]: elongates
total of attack time [1]: shortens
spontaneous locomotor activity [2]: decreased

CC(C)CN(c1ccc(C(F)(F)F)cc1OCc1ccc(C=CC(=O)O)cc1)S(=O)(=O)c1ccco1 [EP1 antagonist, 4-[2-(N-isobutyl-2-furanylsulfonylamino)-5-trifluoromethylphenoxymethyl]cinna mic acid]
amount of ACTH production by LPS-induction [3]: significantly decreases
decrease of the spontaneous locomotor activity induced by LPS [4]: has decreased
mice jumped off the platform [5]: All mice in the EP1 antagonist administrated group jumped off the platform 7 minutes later
time of the smelling action [6]: shortened
